Measurements: patent publication US20240174684A1, “INHIBITORS OF cGAS ACTIVITY AS THERAPEUTIC AGENTS” (BELLBROOK LABS, LLC, priority 2021, published 2024)
pIC50: −log10 of the molar value. Where two headings read alike, the source gives them in different places.

Experiments:
MDR1 (P-glycoprotein) = test: MDCK-MDR1 permeability A→B; type: in vitro ADME, Canine; settings: dog; MDCK cells expressing human MDR1, A→B; read-out: MDCK-MDR Permeability A→B
Description: (§1) ADME studies: Compound A and the compounds of the disclosure were tested for aqueous solubility (KSOL), metabolic stability (human and mouse […]) and permeability (Caco-2 and/or MDR1-MDCK cells) to provide an initial indication of oral bioavailability.
(§2) The favorable physicochemical properties are reflected in promising results in in vitro ADME tests. […] Metabolic stability, which was routinely measured with mouse and human hepatocytes, is outstanding, with t, greater than 2 hours for all of the compounds of the disclosure in which it has been measured. Cell permeability was measured using MDCK cells expressing human MDR1 (P-glycoprotein) to assess passive permeability as well as active transport out of the cell. […] Numerous compounds in Table 1 meet these permeability criteria, which is consistent with their design for TPSA <140 Å^2 and increased lipophilicity.
(§3) The MDCK-MDR1 permeability A ->B is shown in Table 2 below, where A represents 5-10 cm/s×10^−6; B represents 1-5 cm/s×10^−6; and C represents <1 cm/ss×10^−6. The metabolic stability half time, in both mouse and human hepatocytes, is also shown in Table 2 below, where A′ represents 100-200 minutes; B′ represents 200-300 minutes; and C′ represents >300 minutes.

cGAS = cGAS (Homo sapiens, UniProt Q8N884); test: Transcreener cGAS enzymatic assay (FP); type: biochemical
Sequence of cGAS (Q8N884 whole entry): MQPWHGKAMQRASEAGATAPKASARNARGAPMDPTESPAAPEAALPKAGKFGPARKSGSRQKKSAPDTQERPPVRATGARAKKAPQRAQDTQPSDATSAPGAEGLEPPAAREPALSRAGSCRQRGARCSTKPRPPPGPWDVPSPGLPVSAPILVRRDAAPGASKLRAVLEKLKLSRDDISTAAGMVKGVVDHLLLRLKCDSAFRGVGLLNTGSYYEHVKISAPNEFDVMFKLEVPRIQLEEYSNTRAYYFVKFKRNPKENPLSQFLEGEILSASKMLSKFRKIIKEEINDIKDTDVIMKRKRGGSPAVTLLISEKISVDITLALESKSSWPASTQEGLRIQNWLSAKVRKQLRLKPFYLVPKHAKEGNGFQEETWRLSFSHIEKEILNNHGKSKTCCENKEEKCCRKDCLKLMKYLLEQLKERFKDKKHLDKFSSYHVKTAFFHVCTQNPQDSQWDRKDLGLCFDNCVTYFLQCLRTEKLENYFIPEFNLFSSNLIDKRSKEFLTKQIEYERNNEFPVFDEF
Description: Structural, biochemical and biophysical analysis and selectivity profiling: Potency and MOA studies, including Mn^2+ sensitivity, were performed using the Transcreener cGAS enzymatic assay, which is manufactured at BellBrook Labs (Fitchburg, Wisconsin, USA). This homogenous cGAS enzymatic assay was developed with fluorescence polarization (FP) and time-resolved Forster resonance energy transfer (TR-FRET) readouts, as described in International Patent Publication WO 2020/142729, incorporated by reference herein in its entirety. Plates are read on a PHERAstar FSX multimode reader (BMG). The compounds of the disclosure were tested for inhibition of cGAS ([…]) using this cGAS enzymatic assay under standard conditions (100 μM ATP and GTP, 62.5 nM bp ISD, 60 minute reactions), high ATP and GTP (1 mM) to mimic physiological conditions, in the presence of 200 μM MnCl2, and with mouse cGAS under standard conditions.
The IC50 values for FP under standard and under physiological conditions were determined for several exemplary compounds of the invention. The relative activities for FP Standard IC50 are shown in Table 2 below, where A represents <50 nM; B represents 50-100 nM; C represents 100-200 nM; D represents 200 nM-1μM; and E represents 1-10 μM. For the relative activities for FP Physiological IC50, A′ represents <200 nM; B′ represents 200-500 nM; C′ represents 500 nM-1μM; D′ represents 1-5 μM; and E′ represents >5 μM.

[1] = test system: IFNβ production in THP-1 cells; test: IFNβ ELISA in THP-1 cells; type: cell-based, human; settings: Homo sapiens; THP-1 cells
From the text: Cellular assays: The human monocyte cell line THP-1 and human primary PBMCs were used to evaluate the cellular activity of compounds with good biochemical potency. These cells produce a robust cGAS/STING-dependent type I IFN response when stimulated with dsDNA and other pathogen-associated molecular patterns, which was detected using a standard ELISA for IFNβ (R&D Systems). The TBK1 inhibitor, BX-795, which acts downstream of cGAS/STING, was used as a probe.
CETSA was also used to confirm that the compounds are binding to cGAS in cells; THP-1 cells are used for this analysis. Compounds were tested in dose response mode by incubating with cells for 1.5 hours at 37° C., followed by pelleting and re-suspending in PBS, heating to 51.5° C. for 3 min and cooling to room temp. Cells were then lysed, debris, including denatured cGAS, was pelleted and the supernatant was analyzed for soluble cGAS by Western Blot using anti-cGAS primary Ab (Cell Signaling). Band intensity was analyzed using Image J software. Stimulation with cGAMP directly activates STING, circumventing cGAS; this was used to determine if compounds had effects on downstream components of cGAS/STING signaling. The IFN-6 ELISA was used as the primary measure of cellular potency and selectivity (Table 3) and used the reporter gene assays for assessing off-target activity with other pattern recognition receptors.
The ICso values for IFNB ELISA stimulated with THP-1, PBMC, DNA, and cGAMP were determined for several exemplary compounds of the invention, and are provided in Table 3 where A represents <1 μM; B represents 1-2.5 μM; C represents 2.5-10 μM; D represents 10-20 μM; and E represents >20 μM.

[2] = test system: MDCK cells expressing human MDR1 (P-glycoprotein); test: MDCK-MDR1 permeability A→B; type: in vitro ADME, Canine
Description: as §1, §2, §3

[3] = high ATP and GTP (1 mM) to mimic physiological conditions, read-out: IC50 FP Physiological
[4] = standard conditions: 100 μM ATP and GTP, 62.5 nM bp ISD, 60 minute reactions, read-out: IC50 FP Standard

Papp A→B (MDR1 (P-glycoprotein))	pIC50 (cGAS; [3])	pIC50 (cGAS; [4])	pIC50 [1]	MDCK-MDR Permeability A→B [2]	SMILES
1 to 5 ×10⁻⁶ cm/s	5.30 to 6.00	6.70 to 7.00	4.70 to 5.00		Cc1nc(N2C[C@@H](CC(=O)Nc3ccc(Cl)cc3)C[C@H]2C(=O)O)c2oc3ccccc3c2n1 [Compound 21, (28.4R)-4-(2-((4-chlorophenyl)amino)-2-oxoethyl)-1-(2-methylbenzofuro[3,2-d]pyrimidin-4-yl)pyrrolidine-2-carboxylic acid]
1 to 5 ×10⁻⁶ cm/s	< 5.30	6.00 to 6.70	4.70 to 5.00		Cc1nc(N2C[C@@H](CC(=O)Nc3cccc(C(F)(F)F)c3)C[C@H]2C(=O)O)c2oc3ccccc3c2n1 [Compound 25, (2S,4R)-1-(2-methylbenzofuro[3,2-d]pyrimidin-4-yl)-4-(2-oxo-2-((3-(trifluoromethyl)phenyl)amino)ethyl)pyrrolidine-2-carboxylic acid]
5 to 10 ×10⁻⁶ cm/s	6.00 to 6.30	7.00 to 7.30	5.00 to 5.60		Cc1nc(N2C[C@@H](CC(=O)Nc3ccc(-c4ccccc4)cn3)C[C@H]2C(=O)O)c2oc3ccccc3c2n1 [Compound 67, (2S,4R)-1-(2-methylbenzofuro[3,2-d]pyrimidin-4-yl)-4-(2-oxo-2-((5-phenylpyridin-2-yl)amino)ethyl)pyrrolidine-2-carboxylic acid]
	5.30 to 6.00	6.00 to 6.70	< 4.70	C (C represents <1 cm/ss×10^−6)	Cc1nc(N2C[C@@H](CC(=O)Nc3ccc(F)cc3)C[C@H]2C(=O)O)c2oc3ccccc3c2n1 [Compound 18, (2S,4R)-4-(2-((4-fluorophenyl)amino)-2-oxoethyl)-1-(2-methylbenzofuro[3,2-d]pyrimidin-4-yl)pyrrolidine-2-carboxylic acid]
1 to 5 ×10⁻⁶ cm/s	5.30 to 6.00	6.00 to 6.70	< 4.70		Cc1cccc(NC(=O)C[C@H]2C[C@@H](C(=O)O)N(c3nc(C)nc4c3oc3ccccc34)C2)c1 [Compound 16, (28.4R)-1-(2-methylbenzofuro[3,2-d]pyrimidin-4-yl)-4-(2-oxo-2-(m-tolylamino)ethyl)pyrrolidine-2-carboxylic acid]
	5.30 to 6.00	6.00 to 6.70	< 4.70	C (C represents <1 cm/ss×10^−6)	Cc1nc(N2C[C@@H](CC(=O)Nc3cccc(N4CCC(O)CC4)c3)C[C@H]2C(=O)O)c2oc3ccccc3c2n1 [Compound 58, (2S,4R)-4-(2-((3-(4-hydroxypiperidin-1-yl)phenyl)amino)-2-oxoethyl)-1-(2-methylbenzofuro[3,2-d]pyrimidin-4-yl)pyrrolidine-2-carboxylic acid]
	5.30 to 6.00	6.00 to 6.70	4.70 to 5.00	C (C represents <1 cm/ss×10^−6)	COc1cccc(NC(=O)C[C@H]2C[C@@H](C(=O)O)N(c3nc(C)nc4c3oc3ccccc34)C2)c1 [Compound 13, (2S,4R)-4-(2-((3-methoxyphenyl)amino)-2-oxoethyl)-1-(2-methylbenzofuro[3,2-d]pyrimidin-4-yl)pyrrolidine-2-carboxylic acid]
	< 5.30	6.00 to 6.70	< 4.70	C (C represents <1 cm/ss×10^−6)	Cc1nc(N2C[C@@H](CC(=O)Nc3ccccc3C)C[C@H]2C(=O)O)c2oc3ccccc3c2n1 [Compound 17, (2S,4R)-1-(2-methylbenzofuro[3,2-d]pyrimidin-4-yl)-4-(2-oxo-2-(o-tolylamino)ethyl)pyrrolidine-2-carboxylic acid]

The remaining lines, values behind:

SMILES	Papp A→B (MDR1 (P-glycoprotein))	pIC50 (cGAS; [3])	pIC50 (cGAS; [4])	pIC50 [1]	MDCK-MDR Permeability A→B [2]
Cc1ccc(NC(=O)C[C@H]2C[C@@H](C(=O)O)N(c3nc(C)nc4c3oc3ccccc34)C2)cc1 [Compound 15, (2S,4R)-1-(2-methylbenzofuro[3,2-d]pyrimidin-4-yl)-4-(2-oxo-2-(p-tolylamino)ethyl)pyrrolidine-2-carboxylic acid]	1 to 5 ×10⁻⁶ cm/s	5.30 to 6.00	6.00 to 6.70	< 4.70	
COc1cccc(-c2ccc(NC(=O)C[C@H]3C[C@@H](C(=O)O)N(c4nc(C)nc5c4oc4ccccc45)C3)cc2)c1 [Compound 50, (2S,4R)-4-(2-((3′-methoxy-[1,1′-biphenyl]-4-yl)amino)-2-oxoethyl)-1-(2-methylbenzofuro[3,2-d]pyrimidin-4-yl)pyrrolidine-2-carboxylic acid]	5 to 10 ×10⁻⁶ cm/s	6.30 to 6.70	> 7.30	> 6.00	
Cc1nc(N2C[C@@H](CC(=O)Nc3ccccc3Cl)C[C@H]2C(=O)O)c2oc3ccccc3c2n1 [Compound 23, (28.4R)-4-(2-((2-chlorophenyl)amino)-2-oxoethyl)-1-(2-methylbenzofuro[3,2-d]pyrimidin-4-yl)pyrrolidine-2-carboxylic acid]	1 to 5 ×10⁻⁶ cm/s	< 5.30	6.00 to 6.70	< 4.70	
Cc1nc(N2C[C@@H](CC(=O)Nc3ccc(N4CCN(C)CC4)cc3)C[C@H]2C(=O)O)c2oc3ccccc3c2n1 [Compound 9, (2S,4R)-1-(2-methylbenzofuro[3,2-d]pyrimidin-4-yl)-4-(2-((4-(4-methylpiperazin-1-yl)phenyl)amino)-2-oxoethyl)pyrrolidine-2-carboxylic acid]		< 5.30	5.00 to 6.00	< 4.70	C (C represents <1 cm/ss×10^−6)
Cc1nc(N2C[C@@H](CC(=O)Nc3cccc(N4CCOCC4)c3)C[C@H]2C(=O)O)c2oc3ccccc3c2n1 [Compound 57, (2S,4R)-1-(2-methylbenzofuro[3,2-d]pyrimidin-4-yl)-4-(2-((3-morpholinophenyl)amino)-2-oxoethyl)pyrrolidine-2-carboxylic acid]		5.30 to 6.00	6.70 to 7.00	< 4.70	C (C represents <1 cm/ss×10^−6)
Cc1nc(N2C[C@@H](CC(=O)Nc3ccccc3F)C[C@H]2C(=O)O)c2oc3ccccc3c2n1 [Compound 20, (2S,4R)-4-(2-((2-fluorophenyl)amino)-2-oxoethyl)-1-(2-methylbenzofuro[3,2-d]pyrimidin-4-yl)pyrrolidine-2-carboxylic acid]	1 to 5 ×10⁻⁶ cm/s	< 5.30	6.00 to 6.70	< 4.70	
Cc1nc(N2C[C@@H](CC(=O)Nc3ccc(Cc4ccccn4)cc3)C[C@H]2C(=O)O)c2oc3ccccc3c2n1 [Compound 56, (2S,4R)-1-(2-methylbenzofuro[3,2-d]pyrimidin-4-yl)-4-(2-oxo-2-((4-(pyridin-2-ylmethyl)phenyl)amino)ethyl)pyrrolidine-2-carboxylic acid]		5.30 to 6.00	6.00 to 6.70	< 4.70	C (C represents <1 cm/ss×10^−6)
Cc1nc(N2C[C@@H](CC(=O)Nc3cccc4[nH]ncc34)C[C@H]2C(=O)O)c2oc3ccccc3c2n1 [Compound 28, (28.4R)-4-(2-((1H-indazol-4-yl)amino)-2-oxoethyl)-1-(2-methylbenzofuro[3,2-d]pyrimidin-4-yl)pyrrolidine-2-carboxylic acid]		5.30 to 6.00	6.00 to 6.70	< 4.70	C (C represents <1 cm/ss×10^−6)
